Results: patent US20120258481A1, “CROSS-LINKING ATP ANALOGS” (WAYNE STATE UNIVERSITY, priority 2011, published 2012)

Key:
CK2 kinase = molecular target: T1, CK2 kinase (Homo sapiens, UniProt P68400); assay: Kinase-catalyzed photocrosslinking with peptide substrate Rho-14, in-gel fluorescence; assay type: biochemical; conditions: Rho-14 200 μM, co-substrate 1.3 mM, 365 nm UV 2 hours at 30° C.
T1 construct: purchased New England Biolabs (NEB)
Method: Crosslinking was tested by incubating CK2 kinase and ATP-ArN3 with rhodamine-labeled CK2 peptide substrate 14 (Rho-[sequence], Rho-14). Simultaneously, the reaction mixture was irradiated with 365 nm light to afford a covalent crosslink (FIG. 1c). If kinase-substrate crosslinking occurred, the kinase was expected to become fluorescently labeled, which would be visualized by gel electrophoresis. […] As a final critical control, the crosslinked product was treated with acid to cleave the phosphoramidate bond bridging the peptide and kinase (FIG. 1c).
Photocrosslinking was initiated by irradiating with a handheld UV lamp at 365 nm for 2 hours at 30° C. The phosphoramidate bond in the crosslinked products was cleaved by adding trifluoroacetic acid (TFA) to a final concentration of 50% and incubating at 16° C. for 3 hours. The reaction products were separated by SDS-PAGE and visualized by coomassie staining, silver staining, in-gel fluorescence imaging, or western blotting with a CK2 antibody (Millipore) after transfer onto a PVDF membrane (Immobilon-PSQ, Millipore).
For the photocrosslinking experiments, CK2 (50 units/μL, 0.7 μM) was incubated with either Rho-14 (200 μM,) or full length α-casein (100 μM, Sigma), while Abl (20 units/μL, 44.4 nM) was incubated with ROX-13 (200 μM). All reactions also contained ATP or ATP-ArN3 (1.3 mM) and the manufacturers' kinase buffer.

CK2 and α-casein = molecular target: T2, CK2 and α-casein (Homo sapiens, UniProt P68400); assay: Kinase-catalyzed photocrosslinking with full-length α-casein, SDS-PAGE, coomassie and CK2 western blot; assay type: biochemical; conditions: α-casein 100 μM, co-substrate 1.3 mM, 365 nm UV; CK2 immunoblot
T2 construct: purchased New England Biolabs (NEB)
T2 sequence (P68400 whole entry): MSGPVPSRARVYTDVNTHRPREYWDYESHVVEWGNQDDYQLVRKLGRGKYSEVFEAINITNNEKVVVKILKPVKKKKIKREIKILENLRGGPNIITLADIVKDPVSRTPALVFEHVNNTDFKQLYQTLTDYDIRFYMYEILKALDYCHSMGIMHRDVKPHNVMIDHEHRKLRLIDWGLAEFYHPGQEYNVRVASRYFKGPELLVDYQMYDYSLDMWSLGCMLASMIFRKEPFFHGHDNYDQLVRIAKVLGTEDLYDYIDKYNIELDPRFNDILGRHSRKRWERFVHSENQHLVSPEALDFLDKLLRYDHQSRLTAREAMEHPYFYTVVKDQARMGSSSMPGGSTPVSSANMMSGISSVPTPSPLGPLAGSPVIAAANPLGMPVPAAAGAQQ
T2 sequence (P67870 whole entry partner): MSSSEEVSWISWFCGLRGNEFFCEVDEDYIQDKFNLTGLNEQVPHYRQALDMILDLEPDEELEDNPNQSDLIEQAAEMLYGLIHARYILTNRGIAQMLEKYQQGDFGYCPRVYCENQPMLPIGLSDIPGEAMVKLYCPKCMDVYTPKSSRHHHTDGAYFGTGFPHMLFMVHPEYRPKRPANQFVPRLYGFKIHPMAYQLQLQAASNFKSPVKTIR
Method: Having established phosphorylation-dependent crosslinking between kinase and peptide substrate, crosslinking with a full-length protein substrate was tested. The α-casein protein has been widely used as a model CK2 substrate in phosphoprotein analysis. Crosslinking was carried out by incubating a mixture of CK2 and α-casein with ATP-ArN3 in the presence of UV light. The products were separated by SDS-PAGE and analyzed by coomassie staining (FIG. 3a) and western blot analysis (FIG. 3b). […] Because phosphate transfer is required, a powerful feature of ATP-ArN3-mediated crosslinking is that a kinase substrate is necessarily present in the crosslinked product. Coupled with mass spectrometric analysis, phosphorylation-dependent kinase-substrate crosslinking can determine the sites of phosphorylation in addition to the effector kinase. Importantly, the crosslinking approach is appropriate for studies with cell lysates or homogenized tissue samples since natural kinase and substrate are utilized. […] The reaction products were separated by SDS-PAGE and visualized by coomassie staining, silver staining, in-gel fluorescence imaging, or western blotting with a CK2 antibody (Millipore) after transfer onto a PVDF membrane (Immobilon-PSQ, Millipore). […] The reaction mixtures were incubated for 2 hours at 30° C. before quantitative MALDI-TOF MS analysis (Bruker Daltonics), as previously described. […]

T1 sequence (P68400 whole entry): as the sequence (P68400 whole entry) above
T1 sequence (P67870 whole entry partner): as the sequence (P67870 whole entry partner) above

- fluorophore labeling of CK2 (kinase-substrate crosslinking) (CK2 kinase): no fluorescence labeling was observed
- CK2-α-casein crosslinked complex (68 kDa) formation (CK2 and α-casein): crosslinked complex was absent
SMILES: Nc1ncnc2c1ncn2[C@@H]1O[C@H](COP(=O)(O)OP(=O)(O)OP(=O)(O)O)[C@@H](O)[C@H]1O [ATP, Adenosine 5′-triphosphate]
